Results from US6878690B2, “Compounds and methods” (PharmAxis Pty Ltd., priority 2000, dated 2005).
Where “and” joins values, the source holds several entries; their conditions need not be identical. Identical values can stand only once.

Legend:
[1] = test system: passively transferred EAE; assay: Passively transferred EAE induced with encephalitogenic MBP-specific T cell line (Example 23); format: in vivo, Lewis rats
Procedure: In order to study the effect of the agents of the present invention in vivo on a disease caused by T lymphocyte migration into a specific tissue, experiments were performed in the Lewis rat model of passively transferred EAE. Here, myelin basic protein (MBP)-specific T lymphocyte cell lines were generated from the draining lymph nodes of Lewis rats that had been immunised with MBP in Freund's complete adjuvant essentially according to the method of Ben-Nun et al. (1981) as described in Example 8. Thus, in this manner, donor T lymphocytes were generated from female 10 to 12 week old Lewis rats weighing 150 to 200 g. These rats were injected intradermally in a footpad of each hind foot with an emulsion of Guinea pig myelin basic protein (MBP; prepared according to the method of Deibler et al., 1972; incorporated herein by reference) in Freund's complete adjuvant (0.05 ml). The adjuvant emulsion was prepared by emulsifying equal volumes of a mixture of light mineral oil (Sigma) and normal saline containing Guinea pig myelin basic protein (0.5 mg/ml) and Mycobacterium butyricum (4 mg/ml; Difco). Thus, the total dose per rat was 50 micrograms of MBP and 400 micrograms of M. butyricum. Approximately 11 days following injection, the rats were euthanased and the draining lymph nodes (popliteal and inguinal) removed aseptically by blunt dissection and placed into mixed lymphocyte culture medium. This medium was prepared in the normal fashion from Dulbecco's Modified Eagle's Medium (DMEM; GIBCO, Grand Island, N.Y.) supplemented with glucose, folic acid, L-asparagine, sodium bicarbonate, L-glutamine, sodium pyruvate, HEPES, 2-mercaptoethanol (5×10^−5 M), penicillin, streptomycin, neomycin, and 2% fetal calf serum. A single cell suspension was prepared from the lymph nodes in the usual manner by gently pushing the nodes through a stainless steel screen. The cells were washed twice in the culture medium and following this procedure, any red blood cells were lysed in the usual manner by treating with a solution of ammonium chloride, EDTA and sodium hydrogen carbonate (pH 7.3) and the preparation strained (Falcon 2350 cell strainer). The cells were washed again in the lymphocyte culture medium. All cell preparative steps were performed on ice. These cells were cultured asceptically for 72 hours at 37° C. in a humidified atmosphere containing 7.5% carbon dioxide at a concentration of 5 million cells per milliliter in the presence of MBP (0.06 mg/ml). The cells were collected and the lymphoblasts were isolated by centrifugation on a Ficoll (Pharmacia, Uppsala, Sweden) gradient in an identical manner to that described by Ben Nun et al. (1981). The fraction containing ≧90% lymphoblasts was cultured and propagated in Eagle's medium supplemented with 15% of a concanavalin A-stimulated lymphocyte supernatant to provide growth factors, 10% fetal calf serum, nonessential amino acids (Bio-Lab, Jerusalem, Israel); sodium pyruvate, 2-mercapto ethanol and antibiotics without added antigen. The cells were plated in 100 mm petri dishes at a concentration of 0.2 million cells/ml and replated every 3 or 4 days. Prior to transfer into Lewis recipients, the cells were restimulated in the presence of MBP (0.01 mg/ml) and irradiated syngeneic thymocytes for 4 days.
These cells were highly encephalitogenic sine as few as 500,000 cells were capable of inducing disease when injected into naïve Lewis rats. Thus, in a typical experiment a group of 5 female Lewis rats, approximately 9 weeks old, weighing 110±15 grams were anesthetised with diethyl ether and implanted with mini-osmotic pumps (Alzet 2002, Alza Corp., Palo Alto Calif., USA) containing phosphoric acid mono-(6-propyl-3,4,5-trihydroxy-tetrahydro-pyran-2-ylmethyl) ester mono sodium salt dissolved in normal saline at a concentration that delivered the drug at a rate of 45 mg/kg/rat/day. […]

[2] = test system: DTH response to 2,4-dinitrofluorobenzene (DNFB); assay: Delayed-type hypersensitivity (DTH) response to DNFB, ear swelling; format: in vivo, Balb/C mice
Text: In the present Example, a murine model of Type IV hypersensitivity or delayed-type hypersensitivity (DTH) response to cutaneous contact with the chemical hapten 2,4-dinitrofluorobenzene (DNFB) (Aldrich Chemical Company Inc, USA) was used as a model to measure the anti-inflammatory effects of compounds of the present invention. Specific pathogen-free 8-12 week old female Balb/C mice, weighing 19-21 g, were sensitised in a similar manner to that described by Klimuk et al., (Klimuk et al., 1999) by applying a solution of DNFB (0.5% in acetone:olive oil (4:1, v/v); 30 microliters,) onto a 2 cm^2 shaved area of the abdomen. After 7 days, the animals were anesthetised with diethyl ether and 8 microliters of DNFB (0.35% in acetone:olive oil (4:1, v/v) was applied to the dorsal and ventral surfaces of the right pinna. Prior to regaining consciousness, the mice were implanted intraperitoneally with Alzet 2001 mini-osmotic pumps (Alza Corp., Palo Alto Calif., USA) containing phosphoric acid mono-[6-(3-hexyloxy-propyl)-3,4,5-trihydroxy-tetrahydro-pyran-2-ylmethyl] ester, sodium salt in normal saline. The dose delivered was 50 mg/kg/day. Control animals for this group received saline delivered in identical mini-osmotic pumps. A second experimental group of mice received phosphoric acid mono-[3-(3,4,5-trihydroxy-6-phosphonooxymethyl-tetrahydro-pyran-2-yl)-propyl] ester disodium salt via one-week delivery Alzet 2001 mini-osmotic pumps implanted intraperitoneally. This compound was delivered at a dose of 40 mg/kg/day. Control animals for this group received saline delivered in identical mini-osmotic pumps. In a third experiment a separate group of mice received (3,4,5-trihydroxy-6-phosphonooxymethyl-tetrahydro-pyran-2-yl)-acetic acid disodium salt via one-week delivery Alzet 2001 mini-osmotic pumps that were placed intraperitoneally. This compound was delivered at 45 mg/kg/day. The control group for this experiment received identical mini-osmotic pumps containing normal saline. In a fourth experiment a group of mice received 3-phenyl-2-[2-(3,4,5-trihydroxy-6-phosphonooxymethyl-tetrahydro-pyran-2-yl)-acetylamino]-propionic acid monosodium salt via one-week delivery Alzet 2001 mini-osmotic pumps that were placed subcutaneously. This compound was delivered at 62 mg/kg/day. The control group for this experiment received identical mini-osmotic pumps containing normal saline. In a fifth experiment a group of mice received hexanoic acid 3-(3,4,5-trihydroxy-6-phosphonooxymethyl-tetrahydro-pyran-2-yl)-propyl ester sodium salt via one-week delivery Alzet 2001 mini-osmotic pumps that were placed subcutaneously. This compound was delivered at 40 mg/kg/day. The control group for this experiment received identical mini-osmotic pumps containing normal saline.
Twenty-four hours after challenge the mice were lightly anesthetised with diethyl ether and the thickness of the left and right pinnae measured (in millimeters) using a dial gauge micrometer (Interapid, Switzerland). Care was taken to measure only the outer two thirds of the ear. The increase in ear thickness initiated by the DTH response was determined by subtracting the measurement of the left ear (untreated) from the right ear (challenged).
In Table 4, values in the columns labeled Left and Right are measurements of ear thickness in millimeters of the control and challenged ears respectively.

[3] = test system: passively transferred EAE; assay: Passively transferred EAE induced with concanavalin A stimulated spleen lymphoblasts (Example 24); format: in vivo, Lewis rats; set-up: key to Clinical score - Treated, Mean: 0 = asymptomatic to 5 = hind limb paralysis; settings: for Clinical score - Treated, Mean: group mean
Procedure: In a similar type of experiment outlined in Example 20, and in order to study the effect of the agents of the present invention in vivo on a disease caused by T lymphocyte migration into a specific tissue, further experiments were performed in a Lewis rat model of passively transferred EAE. Here, myelin basic protein (MBP)-specific T lymphocytes were generated in spleens of Lewis rats that had been immunised with guinea pig MBP in Freund's complete adjuvant. Thus, in this manner donor T lymphocytes were generated from male 12-20 week old Lewis rats weighing 200 to 250 g. These rats were injected intradermally in a footpad of each hind foot with an emulsion of guinea pig myelin basic protein (MBP; prepared according to the method of Deibler et al., 1972; incorporated herein by reference) in Freund's complete adjuvant (0.1 ml). The adjuvant emulsion was prepared by emulsifying equal volumes of a mixture of 85% light mineral oil (0.8417 g/mL (Sigma)) plus 15% mannide monooleate (Sigma) containing Mycobacterium butyricum (4 mg/ml; Difco) and normal saline containing guinea pig myelin basic protein (0.25 mg/ml). Thus, the total dose per rat was 25 micrograms of MBP and 400 micrograms of M. butyricum. Ten days following injection, the rats were euthanased and the spleens removed aseptically by blunt dissection and placed into mixed lymphocyte culture medium. This medium was prepared in the normal fashion from Dulbecco's Modified Eagle's Medium (DMEM; GIBCO, Grand Island, N.Y.) supplemented with glucose (4 g/L), folic acid (6 mg/L), L-asparagine (36 mg/L), sodium bicarbonate (2 g/L), L-arginine (116 mg/L), L-glutamine (2 mM), sodium pyruvate (1 mM), HEPES (10 mM), 2-mercaptoethanol (5×10^−5 M), penicillin, streptomycin, neomycin, and 10% fetal calf serum. A single cell suspension was prepared from the spleens in the usual manner by gently pushing them through a stainless steel screen. The cells were washed twice and cultured asceptically for 72 hours at 37° C. in a humidified atmosphere containing 5% carbon dioxide at a concentration of 2 million cells per milliliter in the presence of concanavalin A (2 microgram/mL). The cells were collected and washed twice in Hanks balanced salt solution. Cells were resuspended in Hanks balanced salt solution and each recipient animal (10-12 weeks old female Lewis rats; 160-180 g) received 40-42.5 million lymphoblasts by lateral tail vein injection in a volume of 0.5 ml.
In a typical experiment 4-5 recipient rats were anesthetised with diethyl ether and implanted with mini-osmotic pumps (Alzet 2001, Alza Corp., Palo Alto Calif., USA) containing the test compound. A second group of 4 animals, the control group, under ether anesthesia, were implanted with Alzet 2001 pumps containing normal saline. Mini-osmotic pumps were implanted three days after cell transfer. Disease severity (clinical score) was scored on an arbitrary scale of severity ranging from 0 to 5 as follows: 0, asymptomatic; 1, flaccid distal half of tail; 2, entire tail flaccid; 3, ataxia, difficulty in righting reflex; 4, hind limb weakness; 5, hind limb paralysis. Mean maximum clinical scores were calculated and the disease index (DI) for each group was calculated as described in Example 20. The results of these experiments are outlined in Tables 6, 7 and 8.

CCCC1OC(COP(=O)([O-])O)C(O)C(O)C1O.[Na+] (stereo not drawn) [phosphoric acid mono-(6-propyl-3,4,5-trihydroxy-tetrahydro-pyran-2-ylmethyl) ester mono sodium salt]
drug-treated animals that developed disease ([1]; 45 mg/kg/rat/day, control group 5/5): 3/5
lesions per section in the most affected animal ([1]; day 6 post lymphocyte transfer, histology): no more than 8 lesions per section
average lesions (per section) in spinal cord ([1]; day 6 post lymphocyte transfer, histology, control approximately 15 lesions/section): 3.5 lesions
Mean maximum clinical score ([1]; treated group, 45 mg/kg/rat/day, control group 2.0): 1.0
disease index (DI) ([1]; treated group, 45 mg/kg/rat/day, control group DI 160): 40

O=P([O-])([O-])OCCCC1OC(COP(=O)(O)O)C(O)C(O)C1O.[Na+].[Na+] (stereo not drawn) [phosphoric acid mono-[3-(3,4,5-trihydroxy-6-phosphonooxymethyl-tetrahydro-pyran-2-yl)-propyl] ester disodium salt]
Mean percentage decrease in ear swelling in treated animals ([2]; 40 mg/kg/day intraperitoneally, versus saline controls): Mean percentage decrease in ear swelling in treated animals: 30%
Mean Difference, Treated ([2]; group mean, 40 mg/kg/day intraperitoneally, saline control mean 0.086): 0.060 millimeters
Difference (right minus left ear), Treated ([2]; individual mice, 40 mg/kg/day, mini-osmotic pump intraperitoneally, 24 hours after challenge, disodium salt): 0.07 millimeters and 0.03 millimeters and 0.02 millimeters and 0.06 millimeters and 0.12 millimeters
Right ear thickness, Treated ([2]; individual mice, challenged ear, 40 mg/kg/day, mini-osmotic pump intraperitoneally, 24 hours after challenge, disodium salt): 0.28 millimeters (2×) and 0.25 millimeters and 0.23 millimeters and 0.33 millimeters
Left ear thickness, Treated ([2]; individual mice, control (unchallenged) ear, 40 mg/kg/day, mini-osmotic pump intraperitoneally, 24 hours after challenge, disodium salt): 0.21 millimeters (3×) and 0.22 millimeters (2×)
Clinical score - Treated, Mean ([3]; day 4, 40 mg/kg/day intraperitoneally): 0
Clinical score - Treated ([3]; day 4, individual rats, 40 mg/kg/day intraperitoneally, scale 0 to 5): 0
Clinical score - Treated, Mean ([3]; day 5, 40 mg/kg/day intraperitoneally): 1.375
Clinical score - Treated ([3]; day 5; individual rats; 40 mg/kg/day intraperitoneally; scale 0 to 5; disodium salt, 40 mg/kg/day)): 2 (2×) and 0 and 1.5
Clinical score - Treated, Mean ([3]; day 7, 40 mg/kg/day intraperitoneally): 2.125
Clinical score - Treated ([3]; day 7; individual rats; 40 mg/kg/day intraperitoneally; scale 0 to 5; disodium salt, 40 mg/kg/day)): 2.5 and 1 and 3 and 2
Clinical score - Treated, Mean ([3]; day 8, 40 mg/kg/day intraperitoneally): 1.75
Clinical score - Treated ([3]; day 8; individual rats; 40 mg/kg/day intraperitoneally; scale 0 to 5; disodium salt, 40 mg/kg/day)): 2 (2×) and 0.5 and 2.5
Clinical score - Treated, Mean ([3]; day 9, 40 mg/kg/day intraperitoneally): 0.75
Clinical score - Treated ([3]; day 9; individual rats; 40 mg/kg/day intraperitoneally; scale 0 to 5; disodium salt, 40 mg/kg/day)): 1 (3×) and 0
Clinical score - Treated, Mean ([3]; day 10, 40 mg/kg/day intraperitoneally): 0.125
Clinical score - Treated ([3]; day 10; individual rats; 40 mg/kg/day intraperitoneally; scale 0 to 5; disodium salt, 40 mg/kg/day)): 0 (3×) and 0.5
Mean maximum clinical score ([3]; treated group, 40 mg/kg/day intraperitoneally, control 3.0): clinical score 2.3
DI (disease index) ([3]; treated group, 40 mg/kg/day intraperitoneally, control DI 45.0): DI - 18.6 Mean maximum
